In this assay the target is C619A GlcB (malate synthase) (Mycobacterium tuberculosis, UniProt P9WK17, C619A).

Like-named read-outs stand apart in the source and are kept apart here.

One may read the IC50 as the concentration that gives 50% inhibition. `O=C(O)C(=O)CC(=O)c1cccc(Cl)c1` [Compound 6] displayed a concentration for half-maximal inhibition (IC50) of 0.17 µM. Turning to `Cc1ccc(C(=O)CC(=O)C(=O)O)cc1` [Compound 8], the IC50 is 6 µM. In addition, the concentration for half-maximal inhibition (IC50) (read-out: IC50 against GlcB) came out at 5.7 µM.

`O=C(O)C(=O)CC(=O)c1ccc(Br)cc1` [Compound 9]: half-maximal inhibition (IC50) required 5.7 µM. For the same compound, the IC50 (read-out: IC50 against GlcB) amounted to 6 µM. `O=C(O)C(=O)CC(=O)c1ccccc1Cl` [Compound 3] displayed an IC50 of 0.5 µM. `O=C(O)C(=O)CC(=O)c1ccccc1F` [Compound 2] gave a half-maximal inhibitory concentration (IC50) of 0.24 µM.

The values above are taken from paper PMC3530165 (Chemistry & biology, 2012).
